Measurements reported in PubChem BioAssay (NCI).
Where “and” joins values, the source holds several entries; their conditions need not be identical. Equal entries are not always repeated.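 Grown in 96-well plates, cells were treated for 48 hours with each compound at five concentrations. Insufficient inhibition: endpoint recorded as highest concentration tested. GI50 = concentration required for 50% inhibition of growth. TGI: total growth inhibition.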

Tests used:
Assay in all cases: growth of human tumour cells (NCI), 48 h
SK-MEL-28 melanoma = tested on: SK-MEL-28 melanoma
COLO 205 colon = tested on: COLO 205 colon
HL-60(TB) leukemia = tested on: HL-60(TB) leukemia
UACC-257 melanoma = tested on: UACC-257 melanoma
SF-295 CNS = tested on: SF-295 CNS
K-562 leukemia = tested on: K-562 leukemia
SNB-75 CNS = tested on: SNB-75 CNS
M14 melanoma = tested on: M14 melanoma
SK-MEL-2 melanoma = tested on: SK-MEL-2 melanoma
MDA-MB-435 = tested on: MDA-MB-435

SMILES	TGI (SK-MEL-28 melanoma)	TGI (COLO 205 colon)	TGI (HL-60(TB) leukemia) [µM]	TGI (UACC-257 melanoma)	TGI (SF-295 CNS)	TGI (K-562 leukemia) [µM]	TGI (SNB-75 CNS)	TGI (M14 melanoma)	TGI (SK-MEL-2 melanoma)	GI50 (SK-MEL-28 melanoma) [µM]	GI50 (COLO 205 colon) [nM]	GI50 (HL-60(TB) leukemia) [µM]	GI50 (UACC-257 melanoma) [nM]	GI50 (SF-295 CNS) [nM]	GI50 (K-562 leukemia) [nM]	GI50 (SNB-75 CNS) [nM]	GI50 (M14 melanoma) [nM]	GI50 (SK-MEL-2 melanoma) [µM]	TGI (MDA-MB-435) [µM]	GI50 (MDA-MB-435) [nM]
Cc1c(C(=O)CC(=O)C(=O)Nc2ccc(Cl)c(Cl)c2)[n+](=O)c2ccccc2n1[O-]	> 100 µM	36.1 µM	47.4	34.5 µM	> 100 µM	57.2	48.9 µM	36.5 µM	57 µM	–	–	–	–	–	–	–	–	–	–	–
ClC1CCC2OOC1O2 (stereo unspecified)	> 100 µM	> 100 µM	> 100	> 100 µM	> 100 µM	> 100	> 100 µM	> 100 µM	> 100 µM	–	–	–	–	–	–	–	–	–	–	–
O=c1c2ccccc2nc(-c2ccc(Br)cc2)n1NC1OC(CO)C(O)C(O)C1O (stereo unspecified)	> 100 µM	> 100 µM	> 100	> 100 µM	> 100 µM	> 100	> 100 µM	> 100 µM	> 100 µM	–	–	–	–	–	–	–	–	–	–	–
CCC1=C(C)/C(=C/c2[nH]c(CBr)c(CC)c2C)N=C1CBr	34.2 µM	30.2 µM	25.6	–	42.7 µM	> 100	55.9 µM	33.1 µM	48.5 µM	–	–	–	–	–	–	–	–	–	–	–
COc1cc2ccc3c4c(OC)cc(OC)c(OC)c4c(=O)n(C)c3c2cc1OC	16.7 µM and > 48.5 µM	4.09 µM and 9.95 µM	1.16	16.7 µM and > 49.2 µM	2.89 µM and > 22.4 µM	–	14.5 µM and > 42.5 µM	7.91 µM and > 33.9 µM	16.7 µM and > 47.6 µM	8.01	1300	0.351	3090	809	303	3250	2280	3.29	–	–
O=[N+]([O-])c1cc(CCl)ccc1CCl	5.01 µM	3.19 µM	–	> 20.1 µM	19.7 µM	7.49	6.88 µM	3.59 µM	7.83 µM	–	–	–	–	–	–	–	–	–	5.05	–
COC(=O)/C(C#N)=C1\CCC(O)N1C (stereo unspecified)	> 100 µM	–	> 100	> 100 µM	> 100 µM	> 100	> 100 µM	> 100 µM	> 100 µM	–	–	–	–	–	–	–	–	–	–	–
COC(=O)C(C(=O)C(=O)NC1=C(Cl)C(=O)c2ccccc2C1=O)c1csc(-n2nc(-c3ccccc3)cc2-c2ccccc2)n1 (stereo unspecified)	–	> 100 µM	> 100	> 100 µM	> 100 µM	> 100	9.4 µM	> 100 µM	–	–	–	–	–	–	–	–	–	–	–	–
COc1ccc(C(c2ccc(C(C)C)cc(=O)c2O)c2ccc3cccnc3c2O)cc1 (stereo unspecified)	–	19.3 µM	6.23	–	7.43 µM	> 100	0.589 µM	3.06 µM	30.1 µM	–	–	–	–	–	–	–	–	–	–	–
CCc1ccccc1NC(=O)CCc1n[nH]c(=S)o1	> 100 µM	> 100 µM	> 100	> 100 µM	> 100 µM	> 100	> 100 µM	> 100 µM	–	–	–	–	–	–	–	–	–	–	–	–
CC(=O)OCc1cc(OC(C)=O)cnc1COC(C)=O	> 100 µM	> 100 µM	> 100	> 100 µM	> 100 µM	> 100	> 100 µM	> 100 µM	> 100 µM	–	–	–	–	–	–	–	–	–	–	–
COC(=O)C1=CN=C(C(=O)OC)NN1	> 100 µM	> 100 µM	> 100	> 100 µM	> 100 µM	> 100	> 100 µM	> 100 µM	> 100 µM	–	–	–	–	–	–	–	–	–	–	–
Cc1ccc(S(=O)(=O)/N=c2\ssc(Nc3ccccc3)c2Cl)cc1	–	–	> 50	30.3 µM	12.4 µM	> 50	–	> 50 µM	> 50 µM	–	–	15.5	9860	1150	18400	–	22800	18.3	22.1	8410
CC(=O)NC(CCCCNC(=O)N(CCCl)N=O)C(=O)NCc1ccccc1 (stereo unspecified)	> 100 µM	> 100 µM	> 100	> 100 µM	> 100 µM	> 100	> 100 µM	> 100 µM	> 100 µM	–	–	–	–	–	–	–	–	–	–	–
COc1ccc(-c2nn(-c3cccc(NC(=O)Nc4ccc(Cl)c(C(F)(F)F)c4)c3)cc2-c2ccncc2)cc1Cl	13.3 µM	4.2 µM	–	7.42 µM	7.23 µM	–	9.56 µM	4.44 µM	5.71 µM	3.08	2010	–	2440	2310	–	1910	1900	2.77	5.92	2160
Cc1oc2c(C)c(O)c3c(c2c1C1(C)OCCO1)C(=O)C=C(Cl)C3=O	> 100 µM	> 100 µM	> 100	> 100 µM	> 100 µM	> 100	–	> 100 µM	> 100 µM	–	–	–	–	–	–	–	–	–	–	–
N.N.N.N.N.N.[I-].[Os]	> 100 µM	> 100 µM	> 100	> 100 µM	> 100 µM	> 100	> 100 µM	> 100 µM	> 100 µM	> 100	> 100000	> 100	> 100000	> 100000	> 100000	> 100000	> 100000	> 100	–	–
CN(C)C(=O)/N=c1\ss/c(=N\C(=S)N(C)C)n1-c1ccccc1	> 56.6 µM	> 100 µM	44.8	28.6 µM	> 100 µM	> 56.1	71.1 µM	> 74.5 µM	> 100 µM	–	306	6.59	–	–	–	–	–	–	–	–
CN1CCC[C@@H]1CCO[C@](C)(c1ccccc1)c1ccc(Cl)cc1	4.36 µM	3.56 µM	18	4.17 µM	6.43 µM	–	12.7 µM	3.45 µM	16.2 µM	2	1750	4.03	1900	2320	–	2290	1820	5	8.19	2460
c1cc(OCCN2CCCCCC2)ccc1CNc1ccc2nc(CCC3CCCCC3)[nH]c2c1	–	3.57 µM	3.8	4.12 µM	3.82 µM	4.61	4.52 µM	3.32 µM	3.63 µM	–	1810	1.76	1940	1940	1630	1500	1720	1.88	3.35	1740
